Measured values reported in paper PMC10949639, “Engineering Escherichia coli for high-yielding 2,5-Dimethylpyrazine synthesis from L-Threonine by reconstructing metabolic pathways and enhancing cofactors regeneration” (Biotechnology for Biofuels and Bioproducts, 2024).

Columns and labels:
[1] = target: T1, EcTDH (L-threonine dehydrogenase) (Escherichia coli, UniProt P07913); experiment: NADH formation at […] nm, lysate supernatant; type: biochemical; conditions: 100 mM Tris-HCl pH 9.0, 100 mM L-threonine, 50 mM NAD+, 30 °C
T1 construct: gene tdh; recombinant from pACYCDuet-1 (BamH I/Hind III) in E. coli BL21(DE3); crude lysate supernatant; gene about 1100 bp
T1 sequence (P07913 1-341): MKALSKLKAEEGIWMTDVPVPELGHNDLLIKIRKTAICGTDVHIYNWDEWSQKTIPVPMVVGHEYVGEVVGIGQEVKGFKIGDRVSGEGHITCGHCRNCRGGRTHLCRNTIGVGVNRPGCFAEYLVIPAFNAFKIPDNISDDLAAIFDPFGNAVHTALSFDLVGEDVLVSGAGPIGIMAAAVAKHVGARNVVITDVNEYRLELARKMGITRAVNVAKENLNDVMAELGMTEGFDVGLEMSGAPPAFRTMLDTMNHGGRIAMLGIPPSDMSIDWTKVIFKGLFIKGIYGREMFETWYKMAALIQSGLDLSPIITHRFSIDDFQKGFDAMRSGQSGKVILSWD

[2] = target: T2, EhNOX (NADH oxidase) (Enterococcus hirae, UniProt I6S3N3); experiment: NADH consumption, lysate supernatant; type: biochemical; conditions: 200 μM NADH, 10 μM FAD, 1 mM dithiothreitol, 20 mM citrate-sodium citrate pH 5.6
T2 construct: gene EHR_12315; recombinant from pACYCDuet-1-Ectdh-Ehnox (Nde I/Xho I) in E. coli BL21(DE3), co-expressed with EcTDH; crude lysate supernatant; gene about 1400 bp
T2 sequence (I6S3N3 1-450): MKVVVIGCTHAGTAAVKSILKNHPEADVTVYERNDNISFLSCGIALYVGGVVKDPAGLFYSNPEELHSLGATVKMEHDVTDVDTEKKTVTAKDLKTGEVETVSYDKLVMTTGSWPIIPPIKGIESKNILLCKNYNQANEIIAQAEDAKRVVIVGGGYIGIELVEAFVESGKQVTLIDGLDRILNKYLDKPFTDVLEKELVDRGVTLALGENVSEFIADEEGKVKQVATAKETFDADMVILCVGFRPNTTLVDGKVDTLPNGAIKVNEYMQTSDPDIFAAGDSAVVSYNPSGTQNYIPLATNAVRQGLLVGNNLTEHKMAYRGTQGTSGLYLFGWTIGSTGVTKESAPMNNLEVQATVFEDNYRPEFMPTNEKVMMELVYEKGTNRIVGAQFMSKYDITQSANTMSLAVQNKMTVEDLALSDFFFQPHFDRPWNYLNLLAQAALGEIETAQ

## C[C@@H](O)[C@H](N)C(=O)O [L-threonine]
[1]
  NADH formation at 340 nm, lysate supernatant: The enzyme activity of EcTDH was determined using L-threonine as the substrate

## NC(=O)C1=CN([C@@H]2O[C@H](COP(=O)(O)OP(=O)(O)OC[C@H]3O[C@@H](n4cnc5c(N)ncnc54)[C@H](O)[C@@H]3O)[C@@H](O)[C@H]2O)C=CC1 [NADH]
[2]
  NADH consumption, lysate supernatant: The enzyme activity of EhNOX was determined using NADH as substrate
